Laboratory results as given in PMC4021826, “Functional characterization of a xylose transporter in Aspergillus nidulans” (Biotechnology for Biofuels, 2014).

Molecular target: T1, XtrD (Aspergillus nidulans, UniProt Q5BGT0)
T1 construct: gene ANIA_00250; full-length xtrD in modified vector pRH195 (HXT7 promoter), expressed in S. cerevisiae EBY.VW4000 lacking hexose transporters
T1 sequence (Q5BGT0 1-547): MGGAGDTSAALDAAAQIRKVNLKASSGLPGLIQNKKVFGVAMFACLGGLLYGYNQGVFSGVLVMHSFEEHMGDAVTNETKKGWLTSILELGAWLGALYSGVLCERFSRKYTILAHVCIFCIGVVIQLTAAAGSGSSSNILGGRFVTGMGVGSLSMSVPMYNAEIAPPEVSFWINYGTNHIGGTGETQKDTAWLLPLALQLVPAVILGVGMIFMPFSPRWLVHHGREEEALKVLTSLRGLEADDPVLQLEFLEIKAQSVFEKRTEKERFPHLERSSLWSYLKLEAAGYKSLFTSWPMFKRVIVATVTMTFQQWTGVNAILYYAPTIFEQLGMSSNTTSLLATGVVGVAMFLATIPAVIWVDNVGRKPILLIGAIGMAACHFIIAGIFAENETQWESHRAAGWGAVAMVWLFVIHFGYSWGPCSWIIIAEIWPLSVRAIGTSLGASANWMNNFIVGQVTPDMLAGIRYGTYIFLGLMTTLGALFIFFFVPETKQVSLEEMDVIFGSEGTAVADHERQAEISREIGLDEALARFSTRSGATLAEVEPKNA
Test: competition of […]glucose uptake in S. cerevisiae EBY.VW4000 expressing xtrD
Assay type: cell-based
Details: 10- and 20-fold excess unlabeled xylose over glucose, respectively; 5 s uptake, 30 °C

% inhibition of radiolabeled glucose transport at 10- and 20-fold excess: 90% to 100%
Compound: OC1OC[C@@H](O)[C@H](O)[C@H]1O (stereo partly shown) [xylose]
